Experimental data from patent US10710978B2, “STK4 inhibitors for treatment of hematologic malignancies” (Dana-Farber Cancer Institute, Inc., priority 2015, dated 2020).
Where two headings read alike, the source gives them in different places.

Experiments:
Assay in all cases: KiNativ assay
Type in all cases: binding
Settings in all cases: H929 live cell
[1] = molecular target: MAP2K3 (Homo sapiens (Human), UniProt P46734)
Protocol: (§1) Biochemical IC50s of the compounds of the present disclosure against various kinases were measured in a KiNativ assay. Compounds were screened in duplicate at 10 μM in H929 live cell. IC50 was measured via Mass spectroscopy (MS).

[2] = molecular target: CHK1 (Homo sapiens (Human), UniProt O14757)
Chain of CHK1 (O14757 whole entry): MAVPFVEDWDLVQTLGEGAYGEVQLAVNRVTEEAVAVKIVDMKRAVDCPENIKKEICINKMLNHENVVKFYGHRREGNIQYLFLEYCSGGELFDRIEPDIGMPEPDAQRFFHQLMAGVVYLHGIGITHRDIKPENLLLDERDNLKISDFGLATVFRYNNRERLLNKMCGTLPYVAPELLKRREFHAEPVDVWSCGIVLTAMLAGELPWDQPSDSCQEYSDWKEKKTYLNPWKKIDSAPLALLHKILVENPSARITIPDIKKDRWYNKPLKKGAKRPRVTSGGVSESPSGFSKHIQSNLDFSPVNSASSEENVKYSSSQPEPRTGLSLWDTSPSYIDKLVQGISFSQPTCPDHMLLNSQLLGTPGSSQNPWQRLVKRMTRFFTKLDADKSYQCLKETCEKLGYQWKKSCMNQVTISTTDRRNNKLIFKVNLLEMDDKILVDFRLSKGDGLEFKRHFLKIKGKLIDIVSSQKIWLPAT
Protocol: as §1

[3] = molecular target: PHKg2 (Homo sapiens (Human), UniProt P15735)
Protocol: as §1

[4] = molecular target: OSR1 (Homo sapiens (Human), UniProt O95747)
Chain of OSR1 (O95747 whole entry): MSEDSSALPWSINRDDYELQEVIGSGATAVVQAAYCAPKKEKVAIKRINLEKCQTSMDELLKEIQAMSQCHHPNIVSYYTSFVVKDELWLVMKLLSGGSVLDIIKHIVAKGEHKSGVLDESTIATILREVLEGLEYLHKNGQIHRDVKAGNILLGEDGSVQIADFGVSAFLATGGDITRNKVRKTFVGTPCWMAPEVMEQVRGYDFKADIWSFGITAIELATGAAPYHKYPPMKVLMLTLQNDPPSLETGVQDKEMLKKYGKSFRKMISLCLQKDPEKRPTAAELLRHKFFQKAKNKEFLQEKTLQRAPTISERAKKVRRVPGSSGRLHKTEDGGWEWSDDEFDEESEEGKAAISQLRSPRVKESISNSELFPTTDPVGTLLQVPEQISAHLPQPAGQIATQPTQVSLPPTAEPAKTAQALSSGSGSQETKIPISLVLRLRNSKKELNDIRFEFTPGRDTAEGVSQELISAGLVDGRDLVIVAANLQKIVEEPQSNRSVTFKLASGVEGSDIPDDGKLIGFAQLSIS
Protocol: as §1

[5] = molecular target: PIK3C3 (Homo sapiens (Human), UniProt Q8NEB9)
Protocol: as §1

[6] = molecular target: IRAK1 (Homo sapiens (Human), UniProt P51617)
Protocol: as §1

[7] = molecular target: ILK (Homo sapiens (Human), UniProt Q13418)
Protocol: as §1

[8] = molecular target: LOK (Homo sapiens (Human), UniProt O94804)
Protocol: as §1

[9] = molecular target: MAP2K1 (Homo sapiens (Human), UniProt Q02750)
Protocol: as §1

[10] = molecular target: TYK2 domain2 (Homo sapiens (Human), UniProt P29597)
Protocol: as §1

[11] = test system: PI4KA, PI4KAP2
Protocol: as §1

[12] = test system: JNK1, JNK2, JNK3
Protocol: as §1

[13] = molecular target: MAST3 (Homo sapiens (Human), UniProt O60307)
Protocol: as §1

[14] = molecular target: EphB2 (Homo sapiens (Human), UniProt P29323)
Protocol: as §1

[15] = molecular target: KHS1 (Homo sapiens (Human), UniProt Q9Y4K4)
Protocol: as §1

[16] = molecular target: MARK4 (Homo sapiens (Human), UniProt Q96L34)
Protocol: as §1

[17] = test system: MAPKAPK2, MAPKAPK3
Protocol: as §1

[18] = molecular target: JAK1 domain2 (Homo sapiens (Human), UniProt P23458)
Chain of JAK1 domain2 (P23458 whole entry, the tested form may be a part): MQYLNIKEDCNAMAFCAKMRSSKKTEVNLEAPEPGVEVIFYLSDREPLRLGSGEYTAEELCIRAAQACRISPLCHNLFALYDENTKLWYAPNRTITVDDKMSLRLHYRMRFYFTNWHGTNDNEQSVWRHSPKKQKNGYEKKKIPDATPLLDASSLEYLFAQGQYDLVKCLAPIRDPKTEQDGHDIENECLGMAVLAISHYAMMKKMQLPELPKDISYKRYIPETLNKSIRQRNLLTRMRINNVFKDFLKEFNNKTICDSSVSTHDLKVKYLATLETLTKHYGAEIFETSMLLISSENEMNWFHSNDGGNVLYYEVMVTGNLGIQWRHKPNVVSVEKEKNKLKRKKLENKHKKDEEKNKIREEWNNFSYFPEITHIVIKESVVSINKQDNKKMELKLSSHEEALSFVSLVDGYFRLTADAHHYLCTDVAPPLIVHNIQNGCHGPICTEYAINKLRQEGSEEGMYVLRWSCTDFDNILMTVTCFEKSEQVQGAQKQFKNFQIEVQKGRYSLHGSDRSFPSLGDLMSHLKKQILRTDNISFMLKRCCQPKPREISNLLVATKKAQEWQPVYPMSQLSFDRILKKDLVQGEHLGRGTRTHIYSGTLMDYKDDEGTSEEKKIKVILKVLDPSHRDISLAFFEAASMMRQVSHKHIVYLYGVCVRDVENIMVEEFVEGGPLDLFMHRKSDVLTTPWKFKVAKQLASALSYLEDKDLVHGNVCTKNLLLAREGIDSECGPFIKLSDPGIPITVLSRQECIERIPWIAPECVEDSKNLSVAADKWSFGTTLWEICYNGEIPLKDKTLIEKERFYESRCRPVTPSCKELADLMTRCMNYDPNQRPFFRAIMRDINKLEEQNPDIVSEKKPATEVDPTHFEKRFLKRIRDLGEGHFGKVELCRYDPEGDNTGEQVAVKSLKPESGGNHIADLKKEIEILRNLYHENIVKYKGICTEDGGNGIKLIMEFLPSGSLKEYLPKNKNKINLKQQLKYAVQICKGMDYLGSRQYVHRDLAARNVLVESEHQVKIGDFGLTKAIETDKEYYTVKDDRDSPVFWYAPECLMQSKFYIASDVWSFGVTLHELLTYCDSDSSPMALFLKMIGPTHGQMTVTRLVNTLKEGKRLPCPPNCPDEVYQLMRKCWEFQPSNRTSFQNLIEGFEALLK
Protocol: as §1

[19] = molecular target: ATR (Homo sapiens (Human), UniProt Q13535)
Protocol: as §1

[20] = molecular target: PI4KB (Homo sapiens (Human), UniProt Q9UBF8)
Chain of PI4KB (Q9UBF8 whole entry): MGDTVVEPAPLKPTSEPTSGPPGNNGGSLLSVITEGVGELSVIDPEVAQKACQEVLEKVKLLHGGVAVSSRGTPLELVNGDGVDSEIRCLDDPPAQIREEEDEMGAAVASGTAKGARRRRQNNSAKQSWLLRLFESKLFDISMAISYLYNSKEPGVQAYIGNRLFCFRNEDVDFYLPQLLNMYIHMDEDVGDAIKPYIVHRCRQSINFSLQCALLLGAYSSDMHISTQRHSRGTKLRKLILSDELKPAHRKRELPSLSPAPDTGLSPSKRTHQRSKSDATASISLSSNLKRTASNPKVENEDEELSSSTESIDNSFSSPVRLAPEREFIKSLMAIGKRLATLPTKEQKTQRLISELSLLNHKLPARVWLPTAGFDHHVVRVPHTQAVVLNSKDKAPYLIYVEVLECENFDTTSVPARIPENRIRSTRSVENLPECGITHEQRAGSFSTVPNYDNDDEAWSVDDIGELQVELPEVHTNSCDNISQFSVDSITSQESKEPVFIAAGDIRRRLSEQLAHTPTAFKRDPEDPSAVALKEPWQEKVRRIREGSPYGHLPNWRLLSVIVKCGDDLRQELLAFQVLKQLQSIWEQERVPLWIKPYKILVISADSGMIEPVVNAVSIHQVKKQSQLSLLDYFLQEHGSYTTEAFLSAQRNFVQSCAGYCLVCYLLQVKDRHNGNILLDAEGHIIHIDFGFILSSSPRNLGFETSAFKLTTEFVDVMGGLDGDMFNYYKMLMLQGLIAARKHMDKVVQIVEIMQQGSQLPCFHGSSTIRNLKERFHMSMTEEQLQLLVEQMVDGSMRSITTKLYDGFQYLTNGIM
Protocol: as §1

[21] = molecular target: NDR2 (Homo sapiens (Human), UniProt Q9Y2H1)
Protocol: as §1

[22] = molecular target: CHK2 (Homo sapiens (Human), UniProt O96017)
Protocol: as §1

[23] = molecular target: NEK8 (Homo sapiens (Human), UniProt Q86SG6)
Chain of NEK8 (Q86SG6 whole entry): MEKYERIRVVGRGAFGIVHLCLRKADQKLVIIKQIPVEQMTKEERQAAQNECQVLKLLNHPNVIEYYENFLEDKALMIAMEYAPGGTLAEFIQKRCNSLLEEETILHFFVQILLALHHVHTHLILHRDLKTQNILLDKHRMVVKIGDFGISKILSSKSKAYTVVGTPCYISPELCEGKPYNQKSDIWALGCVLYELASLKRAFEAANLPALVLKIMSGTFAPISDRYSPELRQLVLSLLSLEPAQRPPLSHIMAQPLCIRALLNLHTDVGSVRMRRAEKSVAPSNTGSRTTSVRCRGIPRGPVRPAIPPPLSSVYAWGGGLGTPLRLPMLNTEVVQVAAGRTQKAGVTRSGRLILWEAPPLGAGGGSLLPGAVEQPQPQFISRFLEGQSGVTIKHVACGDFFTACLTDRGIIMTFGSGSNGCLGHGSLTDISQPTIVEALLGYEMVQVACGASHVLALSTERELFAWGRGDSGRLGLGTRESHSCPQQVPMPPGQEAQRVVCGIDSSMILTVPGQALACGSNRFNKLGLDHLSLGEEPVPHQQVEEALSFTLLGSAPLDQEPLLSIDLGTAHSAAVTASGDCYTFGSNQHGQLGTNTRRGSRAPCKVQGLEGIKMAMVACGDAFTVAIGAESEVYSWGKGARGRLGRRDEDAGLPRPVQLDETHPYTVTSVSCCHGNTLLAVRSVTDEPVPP
Protocol: as §1

[24] = molecular target: NDR1 (Homo sapiens (Human), UniProt Q15208)
Protocol: as §1

[25] = molecular target: MAP2K7 (Homo sapiens (Human), UniProt O14733)
Protocol: as §1

[26] = molecular target: NEK1 (Homo sapiens (Human), UniProt Q96PY6)
Protocol: as §1

[27] = molecular target: MAP3K1 (Homo sapiens (Human), UniProt Q13233)
Protocol: as §1

[28] = molecular target: MAP2K6 (Homo sapiens (Human), UniProt P52564)
Chain of MAP2K6 (P52564 whole entry): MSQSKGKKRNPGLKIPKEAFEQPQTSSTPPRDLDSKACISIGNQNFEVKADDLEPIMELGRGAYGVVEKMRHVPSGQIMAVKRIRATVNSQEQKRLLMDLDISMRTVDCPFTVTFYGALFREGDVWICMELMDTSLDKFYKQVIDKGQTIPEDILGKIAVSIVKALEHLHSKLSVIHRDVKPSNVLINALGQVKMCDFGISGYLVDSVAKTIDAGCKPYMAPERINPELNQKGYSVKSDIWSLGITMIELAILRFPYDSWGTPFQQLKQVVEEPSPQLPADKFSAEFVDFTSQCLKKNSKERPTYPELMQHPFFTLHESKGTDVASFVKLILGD
Protocol: as §1

[29] = test system: RSK1 domain1, RSK2 domain1, RSK3 domain1
Protocol: as §1

[30] = molecular target: PIP4K2C (Homo sapiens (Human), UniProt Q8TBX8)
Chain of PIP4K2C (Q8TBX8 whole entry): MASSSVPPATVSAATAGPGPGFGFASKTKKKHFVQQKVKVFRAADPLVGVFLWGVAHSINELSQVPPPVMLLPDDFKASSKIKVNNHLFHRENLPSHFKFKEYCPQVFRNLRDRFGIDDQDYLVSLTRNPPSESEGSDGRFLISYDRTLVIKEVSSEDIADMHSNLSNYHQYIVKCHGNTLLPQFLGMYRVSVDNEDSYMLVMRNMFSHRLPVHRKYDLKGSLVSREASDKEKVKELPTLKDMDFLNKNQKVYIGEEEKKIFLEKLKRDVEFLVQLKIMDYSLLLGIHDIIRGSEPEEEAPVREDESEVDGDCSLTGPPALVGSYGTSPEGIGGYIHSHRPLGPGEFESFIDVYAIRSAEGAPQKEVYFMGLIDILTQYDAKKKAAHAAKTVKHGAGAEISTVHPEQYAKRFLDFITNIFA
Protocol: as §1

[31] = molecular target: AurA (Homo sapiens (Human), UniProt O14965)
Chain of AurA (O14965 whole entry): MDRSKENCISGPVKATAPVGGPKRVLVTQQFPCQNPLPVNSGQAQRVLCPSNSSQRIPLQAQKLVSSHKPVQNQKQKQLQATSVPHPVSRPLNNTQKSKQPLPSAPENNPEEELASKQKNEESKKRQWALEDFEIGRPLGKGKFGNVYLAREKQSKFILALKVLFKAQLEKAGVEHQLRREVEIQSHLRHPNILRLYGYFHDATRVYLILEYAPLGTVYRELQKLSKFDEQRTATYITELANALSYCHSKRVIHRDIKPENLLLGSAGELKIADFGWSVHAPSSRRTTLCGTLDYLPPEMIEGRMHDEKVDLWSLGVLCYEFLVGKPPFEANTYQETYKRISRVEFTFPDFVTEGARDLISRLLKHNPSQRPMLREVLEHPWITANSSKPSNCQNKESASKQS
Protocol: as §1

[32] = molecular target: ZAK (Homo sapiens (Human), UniProt Q9NYL2)
Protocol: as §1

[33] = molecular target: GSK3A (Homo sapiens (Human), UniProt P49840)
Protocol: as §1

[34] = range class, read-out: % inhibition

Question: How did the inhibition at 10 µM [1, 34] turn out when `Nc1ncc(-c2ccc(NS(=O)(=O)C3CC3)cc2F)cc1-c1ccc2c(c1)CCNC2=O` [Compound I-51, N-(4-(6-amino-5-(1-oxo-1,2,3,4-tetrahydroisoquinolin-6-yl)pyridin-3-yl)-3-fluorophenyl) cyclopropanesulfonamide] was run?
Answer: 0%

Question: And the inhibition at 10 µM ([1]; read-out: inhibition (10 μM))?
Answer: 0.9%

Question: What about the inhibition at 10 µM [2, 34] of the same compound?
Answer: 0%

Question: And the inhibition at 10 µM ([2]; read-out: inhibition (10 μM))?
Answer: -20.1%

Question: What about the inhibition at 10 µM [3, 34] of the same compound?
Answer: 0%

Question: What about the inhibition at 10 µM ([3]; read-out: inhibition (10 μM)) of the same compound?
Answer: -45.4%

Question: What about the inhibition at 10 µM [4, 34] of the same compound?
Answer: 0%

Question: What about the inhibition at 10 µM ([4]; read-out: inhibition (10 μM)) of the same compound?
Answer: 8.8%

Question: What about the inhibition at 10 µM [5, 34] of the same compound?
Answer: 0%

Question: What about the inhibition at 10 µM ([5]; read-out: inhibition (10 μM)) of the same compound?
Answer: -13.2%

Question: What about the inhibition at 10 µM [6, 34] of the same compound?
Answer: 50 to 75%

Question: And the inhibition at 10 µM ([6]; read-out: inhibition (10 μM))?
Answer: 65%

Question: And the inhibition at 10 µM [7, 34]?
Answer: 0%

Question: What about the inhibition at 10 µM ([7]; read-out: inhibition (10 μM)) of the same compound?
Answer: -31.3%

Question: And the inhibition at 10 µM [8, 34]?
Answer: > 90%

Question: What about the inhibition at 10 µM ([8]; read-out: inhibition (10 μM)) of the same compound?
Answer: 96.9%

Question: What about the inhibition at 10 µM [9, 34] of the same compound?
Answer: 0%

Question: And the inhibition at 10 µM ([9]; read-out: inhibition (10 μM))?
Answer: -26.2%

Question: And the inhibition at 10 µM [10, 34]?
Answer: 0%

Question: And the inhibition at 10 µM ([10]; read-out: inhibition (10 μM))?
Answer: -23.9%

Question: And the “% inhibition” value ([11]; 10 μM, range class)?
Answer: 0.0%

Question: And the “inhibition (10 μM)” value [11]?
Answer: 0.1%

Question: And the “% inhibition” value ([12]; 10 μM, range class)?
Answer: 0.0%

Question: What about the “inhibition (10 μM)” value [12] of the same compound?
Answer: 29.3%

Question: And the inhibition at 10 µM [13, 34]?
Answer: 0%

Question: And the inhibition at 10 µM ([13]; read-out: inhibition (10 μM))?
Answer: 7%

Question: And the inhibition at 10 µM [14, 34]?
Answer: 0%

Question: And the inhibition at 10 µM ([14]; read-out: inhibition (10 μM))?
Answer: 8.8%

Question: What about the inhibition at 10 µM [15, 34] of the same compound?
Answer: 50 to 75%

Question: And the inhibition at 10 µM ([15]; read-out: inhibition (10 μM))?
Answer: 72.7%

Question: And the inhibition at 10 µM [16, 34]?
Answer: 0%

Question: And the inhibition at 10 µM ([16]; read-out: inhibition (10 μM))?
Answer: 22.2%

Question: And the “% inhibition” value ([17]; 10 μM, range class)?
Answer: 0.0%

Question: What about the “inhibition (10 μM)” value [17] of the same compound?
Answer: −65.2%

Question: What about the inhibition at 10 µM [18, 34] of the same compound?
Answer: 0%

Question: And the inhibition at 10 µM ([18]; read-out: inhibition (10 μM))?
Answer: -6.4%

Question: What about the inhibition at 10 µM [19, 34] of the same compound?
Answer: 0%

Question: And the inhibition at 10 µM ([19]; read-out: inhibition (10 μM))?
Answer: 15%

Question: And the inhibition at 10 µM [20, 34]?
Answer: 0%

Question: What about the inhibition at 10 µM ([20]; read-out: inhibition (10 μM)) of the same compound?
Answer: 13%

Question: And the inhibition at 10 µM [21, 34]?
Answer: 0%

Question: What about the inhibition at 10 µM ([21]; read-out: inhibition (10 μM)) of the same compound?
Answer: 8.4%

Question: What about the inhibition at 10 µM [22, 34] of the same compound?
Answer: 0%

Question: What about the inhibition at 10 µM ([22]; read-out: inhibition (10 μM)) of the same compound?
Answer: 14.1%

Question: What about the inhibition at 10 µM [23, 34] of the same compound?
Answer: 0%

Question: And the inhibition at 10 µM ([23]; read-out: inhibition (10 μM))?
Answer: -8.1%

Question: And the inhibition at 10 µM [24, 34]?
Answer: 0%

Question: And the inhibition at 10 µM ([24]; read-out: inhibition (10 μM))?
Answer: 16.8%

Question: And the inhibition at 10 µM [25, 34]?
Answer: 0%

Question: What about the inhibition at 10 µM ([25]; read-out: inhibition (10 μM)) of the same compound?
Answer: 12.2%

Question: What about the inhibition at 10 µM [26, 34] of the same compound?
Answer: 0%

Question: And the inhibition at 10 µM ([26]; read-out: inhibition (10 μM))?
Answer: 30.2%

Question: And the inhibition at 10 µM [27, 34]?
Answer: > 90%

Question: And the inhibition at 10 µM ([27]; read-out: inhibition (10 μM))?
Answer: 95.8%

Question: What about the inhibition at 10 µM [28, 34] of the same compound?
Answer: 0%

Question: And the inhibition at 10 µM ([28]; read-out: inhibition (10 μM))?
Answer: -3.5%

Question: And the “% inhibition” value ([29]; 10 μM, range class)?
Answer: 0.0%

Question: And the “inhibition (10 μM)” value [29]?
Answer: 25.8%

Question: What about the inhibition at 10 µM [30, 34] of the same compound?
Answer: 75 to 90%

Question: What about the inhibition at 10 µM ([30]; read-out: inhibition (10 μM)) of the same compound?
Answer: 85.4%

Question: What about the “inhibition (10 μM)” value [31] of the same compound?
Answer: 43.2%

Question: What about the inhibition at 10 µM [31, 34] of the same compound?
Answer: 35 to 40%

Question: What about the inhibition at 10 µM ([31]; read-out: inhibition (10 μM)) of the same compound?
Answer: 46.7%

Question: And the inhibition at 10 µM [32, 34]?
Answer: 50 to 75%

Question: And the inhibition at 10 µM ([32]; read-out: inhibition (10 μM))?
Answer: 58.3%

Question: And the inhibition at 10 µM [33, 34]?
Answer: 75 to 90%

Question: What about the inhibition at 10 µM ([33]; read-out: inhibition (10 μM)) of the same compound?
Answer: 85.2%
